According to patent publication US11174253B2, “Compound and pharmaceutical composition containing the same” (ALPHALA CO., LTD., priority 2017, dated 2021):

Each compound was assayed on hepatocellular carcinoma cell line Hep3B (assay: Growth inhibition of Hep3B cells, 48 hr treatment, Hoechst 33342 nucleus count (GE InCell 2200)). Conditions: Homo sapiens, Table 1, ratio of number of tumor cells treated with 10 μM compound to non-treated cells.
Assay type: cell-based
Method: The potency of selected compounds was defined by the growth inhibition ability to the hepatocellular carcinoma cell line Hep3B. The Hep3B cells were treated with selected compounds for 48 hr under 37° C., 5% CO2, and 95% relative humidity.
The number of treated cells was determined by GE InCell 2200 system, and treated cells were stained with Hoechst 33342 which can reveal the remained nucleus in culture plate. The proportion of survival cells then were calculated with the ratio of treated/non-treated cells. The growth inhibition/cytotoxic effect of selected compounds were evaluated by the following protocol of NCI-60 screening platform. The human tumor cell lines are plating on a 96 well plate in a fixed density 24 hr prior compound treatment. Compounds with multiple concentrations are then added into each well for further 48 hr incubation. Cell viability is assessed by MTS method and the potency of compound is represented by GI50 and LC50 calculated by MTS result.
Herein, the “Ratio in 10 μM (%)” in the following Tables 1-6 refers to the ratio of the number of tumor cells treated with 10 μM of selected compounds to the number of non-treated tumer cells.

| Compound | viability at 10 µM [%] |
| --- | --- |
| CCOc1ccncc1-c1nnc(NC(=O)Cc2ccc3nc(N)sc3c2)s1 [Compound 1-34, 2-(2-aminobenzo[d]thiazol-6-yl)-N-(5-(4-ethoxypyridin-3-yl)-1,3,4-thiadiazol-2-yl)acetamide] | 78 |
| CCCc1ccc(-c2nnc(NC(=O)Cc3ccc4nc(N)sc4c3)s2)cc1 [Compound 1-33, 2-(2-aminobenzo[d]thiazol-6-yl)-N-(5-(4-propylphenyl)-1,3,4-thiadiazol-2-yl)acetamide] | 44 |
| Nc1nc2ccc(CC(=O)Nc3nnc(-c4ccccc4OC(F)(F)F)s3)cc2s1 [Compound 1-11, 2-(2-aminobenzo[d]thiazol-6-yl)-N-(5-(2-(trifluoromethoxy)phenyl)-1,3,4-thiadiazol-2-yl)acetamide] | 68 |

Same assay, conditions: Homo sapiens, Table 3, ratio of number of tumor cells treated with 10 μM compound to non-treated cells

| Compound | viability at 10 µM [%] |
| --- | --- |
| CCOc1ccc(-c2nc(NC(=O)Cc3ccc4nc(N)sc4c3)sc2Oc2ccccc2)cc1 [Compound 3-13, 2-(2-aminobenzo[d]thiazol-6-yl)-N-(4-(4-ethoxyphenyl)-5-phenoxythiazol-2-yl)acetamide] | 58 |
| CCCOc1ccc(-c2nc(NC(=O)Cc3ccc4nc(N)sc4c3)sc2-c2ccc(F)cc2)cc1 [Compound 3-6, 2-(2-aminobenzo[d]thiazol-6-yl)-N-(5-(4-fluorophenyl)-4-(4-propoxyphenyl)thiazol-2-yl)acetamide] | 83 |
| CCOc1ccc(-c2csc(NC(=O)Cc3ccc4nc(N)sc4c3)n2)c(OCC)c1 [Compound 3-12, 2-(2-aminobenzo[d]thiazol-6-yl)-N-(4-(2,4-diethoxyphenyl)thiazol-2-yl)acetamide] | 50 |

Same assay, conditions: Homo sapiens, Table 5, ratio of number of tumor cells treated with 10 μM compound to non-treated cells

| Compound | viability at 10 µM [%] |
| --- | --- |
| CCCOc1ccc(-c2nc(NC(=O)c3ccc([N+](=O)[O-])s3)sc2Oc2ccc(F)cc2Cl)cc1 [Compound 5-45, N-(5-(2-chloro-4-fluorophenoxy)-4-(4-propoxyphenyl)thiazol-2-yl)-5-nitrothiophene-2-carboxamide] | 28 |
| CCCOc1ccc(-c2nc(NC(=O)c3ccc([N+](=O)[O-])s3)sc2Oc2ccccc2F)cc1 [Compound 5-58, N-(5-(2-fluorophenoxy)-4-(4-propoxyphenyl)thiazol-2-yl)-5-nitrothiophene-2-carboxamide] | 43 |
| CCCCOc1ccc(-c2nc(NC(=O)c3ccc([N+](=O)[O-])s3)sc2Oc2ccccc2F)cc1 [Compound 5-72, N-(4-(4-butoxyphenyl)-5-(2-fluorophenoxy)thiazol-2-yl)-5-nitrothiophene-2-carboxamide] | 43 |
| Cc1cc(Oc2sc(NC(=O)c3ccc([N+](=O)[O-])s3)nc2-c2ccc(F)cc2)cc(C)c1Br [Compound 5-100, N-(5-(4-bromo-3,5-dimethylphenoxy)-4-(4-fluorophenyl)thiazol-2-yl)-5-nitrothiophene-2-carboxamide] | 30 |
| CCCc1ccc(-c2nc(NC(=O)c3ccc([N+](=O)[O-])s3)sc2Oc2ccccc2)cc1 [Compound 5-77, 5-nitro-N-(5-phenoxy-4-(4-propylphenyl)thiazol-2-yl)thiophene-2-carboxamide] | 33 |
| CCc1ccc(-c2nc(NC(=O)c3ccc([N+](=O)[O-])s3)sc2Oc2ccc(C(C)(C)CC)cc2)cc1 [Compound 5-103, N-(4-(4-ethylphenyl)-5-(4-(tert-pentyl)phenoxy)thiazol-2-yl)-5-nitrothiophene-2-carboxamide] | 33 |
| CCCOc1ccc(-c2nc(NC(=O)c3ccc([N+](=O)[O-])o3)sc2Oc2ccc(F)cc2)cc1 [Compound 5-49, N-(5-(4-fluorophenoxy)-4-(4-propoxyphenyl)thiazol-2-yl)-5-nitrofuran-2-carboxamide] | 41 |
| CCCOc1ccc(-c2nc(NC(=O)c3ccc([N+](=O)[O-])s3)sc2Oc2cccnc2)cc1 [Compound 5-13, 5-nitro-N-(4-(4-propoxyphenyl)-5-(pyridin-3-yloxy)thiazol-2-yl)thiophene-2-carboxamide] | 53 |
| O=C(Nc1nc(-c2ccc([N+](=O)[O-])cc2)c(Oc2ccccc2)s1)c1ccc([N+](=O)[O-])s1 [Compound 5-60, 5-nitro-N-(4-(4-nitrophenyl)-5-phenoxythiazol-2-yl)thiophene-2-carboxamide] | 38 |
| CCCCOc1ccc(-c2nc(NC(=O)c3ccc([N+](=O)[O-])s3)sc2Oc2ccc(C#N)cc2)cc1 [Compound 5-91, N-(4-(4-butoxyphenyl)-5-(4-cyanophenoxy)thiazol-2-yl)-5-nitrothiophene-2-carboxamide] | 46 |
| CCCCOc1ccc(-c2nc(NC(=O)c3ccc([N+](=O)[O-])s3)sc2Oc2ccc(F)cc2)cc1 [Compound 5-73, N-(4-(4-butoxyphenyl)-5-(4-fluorophenoxy)thiazol-2-yl)-5-nitrothiophene-2-carboxamide] | 49 |
| CCC(C)(C)c1ccc(-c2nc(NC(=O)c3ccc([N+](=O)[O-])s3)sc2Oc2ccccc2)cc1 [Compound 5-59, 5-nitro-N-(4-(4-(tert-pentyl)phenyl)-5-phenoxythiazol-2-yl)thiophene-2-carboxamide] | 38 |

Same assay, conditions: Homo sapiens, Table 6, ratio of number of tumor cells treated with 10 μM compound to non-treated cells

| Compound | viability at 10 µM [%] |
| --- | --- |
| CCOc1ccc(-c2nc(NC(=O)c3ccc([N+](=O)[O-])s3)sc2-c2ccc(F)cc2)cc1 [Compound 6-15, N-(4-(4-ethoxyphenyl)-5-(4-fluorophenyl)thiazol-2-yl)-5-nitrothiophene-2-carboxamide] | 64 |
| CCOc1ccc(-c2nc(NC(=O)c3ccc([N+](=O)[O-])s3)sc2Cc2cccc(F)c2)cc1 [Compound 6-36, N-(4-(4-ethoxyphenyl)-5-(3-fluorobenzyl)thiazol-2-yl)-5-nitrothiophene-2-carboxamide] | 41 |
| CCCOc1ccc(-c2nc(NC(=O)c3ccc([N+](=O)[O-])s3)sc2N2CCN(C)CC2)cc1 [Compound 6-22, N-(5-(4-methylpiperazin-1-yl)-4-(4-propoxyphenyl)thiazol-2-yl)-5-nitrothiophene-2-carboxamide] | 29 |
| CCOc1ccc(-c2nc(NC(=O)c3ccc([N+](=O)[O-])s3)sc2C(=O)Nc2cc(F)cc(F)c2)cc1 [Compound 6-27, N-(3,5-difluorophenyl)-4-(4-ethoxyphenyl)-2-(5-nitrothiophene-2-carboxamido)thiazole-5-carboxamide] | 36 |
| CCOc1ccc(-c2nc(NC(=O)c3ccc([N+](=O)[O-])s3)sc2Br)cc1 [Compound 6-17, N-(5-bromo-4-(4-ethoxyphenyl)thiazol-2-yl)-5-nitrothiophene-2-carboxamide] | 53 |
| CC(C)(C)c1ccc(-c2nc(NC(=O)c3ccc([N+](=O)[O-])s3)sc2Cc2ccc(F)cc2)cc1 [Compound 6-37, N-(4-(4-(tert-butyl)phenyl)-5-(4-fluorobenzyl)thiazol-2-yl)-5-nitrothiophene-2-carboxamide] | 39 |
| CC(C)(C)c1ccc(-c2nc(NC(=O)c3ccc([N+](=O)[O-])s3)sc2-c2cc(F)c(F)c(F)c2)cc1 [Compound 6-51, N-(4-(4-(tert-butyl)phenyl)-5-(3,4,5-trifluorophenyl)thiazol-2-yl)-5-nitrothiophene-2-carboxamide] | 50 |
| CCOC(=O)c1sc(NC(=O)c2ccc([N+](=O)[O-])s2)nc1-c1ccc(C(C)(C)C)cc1 [Compound 6-42, ethyl 4-(4-(tert-butyl)phenyl)-2-(5-nitrothiophene-2-carboxamido)thiazole-5-carboxylate] | 49 |
